# Assay results: patent publication US20220306659A1, “COMPOUND INHIBITING AND INDUCING DEGRADATION OF EGFR AND ALK” (BEIJING TIDE PHARMACEUTICAL CO., LTD., priority 2019, published 2022)
# Target: Ba/F3(EGFR^Del19/T790M/C797S) cells (Homo sapiens, UniProt P00533, DEL746-750/T790M/C797S, cells depend on it)
# Assay: Assay of activity on Ba/F3 cells (CTG, 72 h)
# Format: cell-based
# Settings: read-out: IC50 (nM) Ba/F3 (EGFR^Del19/T790M/C797S)
# Description: (2) A compound stock solution was prepared, and then diluted 3× to obtain a compound dilution. 30 nL of the compound dilution was added to a 384-well plate by Echo (Labcyte, Echo550). The cells were incubated in an incubator at 37° C. and 5% CO2 for 72 h.
# The percent inhibition rate (% inhibition) was calculated by the following formula
# LUMcmpd: Luminescence value of assay compound.
# LUMpositive: Average LUM value of positive drug at a concentration of 10 μM.
# LUMvehicle. Average LUM value of negative control group without drug treatment.
# The nonlinear regression curve (dose response-variable slope) between the value of inhibition rate (%) and the logarithm of compound concentration was fitted with graphpad prism 8.0, the effect dose curve of compound was drawn, and the IC50 value was calculated.
# Y=Bottom+(Top−Bottom)/(1+1^((LogIC50−X)*HillSlope))
# X-axis: logarithm of compound concentration; Y axis: inhibition rate ([…]).
# Chain of Ba/F3(EGFR^Del19/T790M/C797S) cells (P00533 with tags, fused parts or gaps DEL746-750/T790M/C797S): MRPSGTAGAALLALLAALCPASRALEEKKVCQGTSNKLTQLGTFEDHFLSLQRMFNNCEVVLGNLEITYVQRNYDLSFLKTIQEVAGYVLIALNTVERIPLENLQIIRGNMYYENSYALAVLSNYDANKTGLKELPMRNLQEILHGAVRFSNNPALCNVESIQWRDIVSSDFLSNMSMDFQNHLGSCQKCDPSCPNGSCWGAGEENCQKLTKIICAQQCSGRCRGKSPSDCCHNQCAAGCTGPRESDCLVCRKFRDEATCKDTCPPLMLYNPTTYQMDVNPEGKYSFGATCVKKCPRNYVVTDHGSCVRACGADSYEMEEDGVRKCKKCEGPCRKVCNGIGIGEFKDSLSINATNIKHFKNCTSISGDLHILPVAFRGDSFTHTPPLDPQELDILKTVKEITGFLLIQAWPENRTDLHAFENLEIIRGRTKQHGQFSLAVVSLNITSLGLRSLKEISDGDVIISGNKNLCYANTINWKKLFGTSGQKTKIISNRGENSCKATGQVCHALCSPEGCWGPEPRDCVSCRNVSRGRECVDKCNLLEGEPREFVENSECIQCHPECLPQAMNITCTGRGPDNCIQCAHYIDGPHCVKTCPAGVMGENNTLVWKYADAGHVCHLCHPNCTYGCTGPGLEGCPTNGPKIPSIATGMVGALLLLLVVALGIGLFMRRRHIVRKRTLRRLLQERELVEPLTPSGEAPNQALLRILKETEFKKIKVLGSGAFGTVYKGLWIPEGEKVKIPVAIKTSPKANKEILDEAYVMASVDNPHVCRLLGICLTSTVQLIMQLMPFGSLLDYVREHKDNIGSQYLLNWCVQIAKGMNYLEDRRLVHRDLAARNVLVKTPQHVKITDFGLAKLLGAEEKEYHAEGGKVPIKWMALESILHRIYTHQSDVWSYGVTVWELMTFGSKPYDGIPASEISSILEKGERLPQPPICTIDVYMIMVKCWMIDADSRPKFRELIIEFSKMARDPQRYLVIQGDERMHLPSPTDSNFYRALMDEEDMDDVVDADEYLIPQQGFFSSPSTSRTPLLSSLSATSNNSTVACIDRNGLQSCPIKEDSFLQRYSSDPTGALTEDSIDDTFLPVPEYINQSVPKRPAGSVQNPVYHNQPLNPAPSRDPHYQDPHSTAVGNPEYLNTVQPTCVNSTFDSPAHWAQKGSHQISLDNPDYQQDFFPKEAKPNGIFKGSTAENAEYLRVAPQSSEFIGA
row,SMILES,GI50
1,COc1cc(N2CCC(N3CCNCC3)CC2)c(C)cc1Nc1ncc(Br)c(Nc2ccc3nccnc3c2P(C)(C)=O)n1 [Compound C158-1],1 to 100 nM
2,"COc1cc(N2CCC3(CCN(CCCCCC#Cc4cc(F)cc5c4CN(C4CCC(=O)NC4=O)C5=O)CC3)CC2)c(C)cc1Nc1ncc(Br)c(Nc2ccc3nccnc3c2P(C)(C)=O)n1 (stereo not drawn) [Compound C185, 3-(4-(7-(9-(4-((5-bromo-4-((5-(dimethylphosphoryl)quinoxalin-6-yl)amino)pyrimidin-2-yl)amino)-5-methoxy-2-methylphenyl)-3,9-diazaspiro[5.5]undecan-3-yl)hept-1-yn-1-yl)-6-fluoro-1-oxoisoindolin-2-yl)piperidine-2,6-dione]",1 to 100 nM
3,"COc1cc(N2CCC(N3CCN(CCOCC#Cc4cc(C(F)(F)F)cc5c4CN(C4CCC(=O)NC4=O)C5=O)CC3)CC2)ccc1Nc1ncc(Cl)c(Nc2ccccc2P(C)(C)=O)n1 (stereo not drawn) [Compound C200, 3-(4-(3-(2-(4-(1-(4-((5-chloro-4-((2-(dimethylphosphoryl)phenyl)amino)pyrimidin-2-yl)amino)-3-methoxyphenyl)piperidin-4-yl)piperazin-1-yl)ethoxy)prop-1-yn-1-yl)-1-oxo-6-(trifluoromethyl)isoindolin-2-yl)piperidine-2,6-dione]",101 to 200 nM
4,"COc1cc(N2CCC3(CCN(CCCCCCOc4cccc5c4CN(C4CCC(=O)NC4=O)C5=O)CC3)CC2)c(C)cc1Nc1ncc(Br)c(Nc2ccc3nccnc3c2P(C)(C)=O)n1 (stereo not drawn) [Compound C212, 3-(4-((6-(9-(4-((5-bromo-4-((5-(dimethylphosphoryl)quinoxalin-6-yl)amino)pyrimidin-2-yl)amino)-5-methoxy-2-methylphenyl)-3,9-diazaspiro[5.5]undecan-3-yl)hexyl)oxy)-1-oxoisoindolin-2-yl)piperidine-2,6-dione]",1 to 100 nM
5,"COc1cc(N2CCC(N3CCN(CCCC#Cc4cccc5c4CN(C4CCC(=O)NC4=O)C5=O)CC3)CC2)c(C)cc1Nc1ncc(Br)c(Nc2ccc3nccnc3c2P(C)(C)=O)n1 (stereo not drawn) [Compound C227, 3-(4-(5-(4-(1-(4-((5-bromo-4-((5-(dimethylphosphoryl)quinoxalin-6-yl)amino)pyrimidin-2-yl)amino)-5-methoxy-2-methylphenyl)piperidin-4-yl)piperazin-1-yl)pent-1-yn-1-yl)-1-oxoisoindolin-2-yl)piperidine-2,6-dione]",1 to 100 nM
6,"COc1cc(N2CCC3(CCN(CCCC#Cc4cccc5c4CN(C4CCC(=O)NC4=O)C5=O)CC3)CC2)c(C)cc1Nc1ncc(Br)c(Nc2ccc3nccnc3c2P(C)(C)=O)n1 (stereo not drawn) [Compound C228, 3-(4-(5-(9-(4-((5-bromo-4-((5-(dimethylphosphoryl)quinoxalin-6-yl)amino)pyrimidin-2-yl)amino)-5-methoxy-2-methylphenyl)-3,9-diazaspiro[5.5]undecan-3-yl)pent-1-yn-1-yl)-1-oxoisoindolin-2-yl)piperidine-2,6-dione]",1 to 100 nM
7,"COc1cc(N2CCC(N3CCN(CCCCCC#Cc4cc(C#N)cc5c4CN(C4CCC(=O)NC4=O)C5=O)CC3)CC2)c(C)cc1Nc1ncc(Br)c(Nc2ccc3nccnc3c2P(C)(C)=O)n1 (stereo not drawn) [Compound C229, 7-(7-(4-(1-(4-((5-bromo-4-((5-(dimethylphosphoryl)quinoxalin-6-yl)amino)pyrimidin-2-yl)amino)-5-methoxy-2-methylphenyl)piperidin-4-yl)piperazin-1-yl)hept-1-yn-1-yl)-2-(2,6-dioxopiperidin-3-yl)-3-oxoisoindoline-5-carbonitrile]",1 to 100 nM
8,"COc1cc(N2CCC(N3CCN(CCCCc4ccc(-c5ccc6c(c5)CN(C5CCC(=O)NC5=O)C6=O)cc4)CC3)CC2)ccc1Nc1ncc(Cl)c(Nc2ccccc2P(C)(C)=O)n1 (stereo not drawn) [Compound C236, 3-(5-(4-(4-(4-(1-(4-((5-chloro-4-((2-(dimethylphosphoryl)phenyl)amino)pyrimidin-2-yl)amino)-3-methoxyphenyl)piperidin-4-yl)piperazin-1-yl)butyl)phenyl)-1-oxoisoindolin-2-yl)piperidine-2,6-dione]",1 to 100 nM

# Other lines, results leading:
row,GI50,SMILES
1,1 to 100 nM,"COc1cc(N2CCC(N3CCN(CCCC#Cc4cccc5c4CN(C4CCC(=O)NC4=O)C5=O)CC3)CC2)ccc1Nc1ncc(Cl)c(Nc2ccccc2P(C)(C)=O)n1 (stereo not drawn) [Compound C126, 3-(4-(5-(4-(1-(4-((5-chloro-4-((2-(dimethylphosphoryl)phenyl)amino)pyrimidin-2-yl)amino)-3-methoxyphenyl)piperidin-4-yl)piperazin-1-yl)pent-1-yn-1-yl)-1-oxoisoindolin-2-yl)piperidine-2,6-dione]"
2,1 to 100 nM,"COc1cc(N2CCC(N3CCN(CCCCCCCCC#Cc4cccc5c4CN(C4CCC(=O)NC4=O)C5=O)CC3)CC2)ccc1Nc1ncc(Cl)c(Nc2ccccc2P(C)(C)=O)n1 (stereo not drawn) [Compound C179, 3-(4-(10-(4-(1-(4-((5-chloro-4-((2-(dimethylphosphoryl)phenyl)amino)pyrimidin-2-yl)amino)-3-methoxyphenyl)piperidin-4-yl)piperazin-1-yl)dec-1-yn-1-yl)-1-oxoisoindolin-2-yl)piperidine-2,6-dione]"
3,1 to 100 nM,"COc1cc(N2CCC(N3CCN(CCCCCC#Cc4cc(Cl)cc5c4CN(C4CCC(=O)NC4=O)C5=O)CC3)CC2)ccc1Nc1ncc(Cl)c(Nc2ccccc2P(C)(C)=O)n1 (stereo not drawn) [Compound C202, 3-(6-chloro-4-(7-(4-(1-(4-((5-chloro-4-((2-(dimethylphosphoryl)phenyl)amino)pyrimidin-2-yl)amino)-3-methoxyphenyl)piperidin-4-yl)piperazin-1-yl)hept-1-yn-1-yl)-1-oxoisoindolin-2-yl)piperidine-2,6-dione]"
4,1 to 100 nM,"COc1cc(N2CCC(N3CCN(CCCCCC#Cc4cc(C#N)cc5c4CN(C4CCC(=O)NC4=O)C5=O)CC3)CC2)ccc1Nc1ncc(Cl)c(Nc2ccccc2P(C)(C)=O)n1 (stereo not drawn) [Compound C204, 7-(7-(4-(1-(4-((5-chloro-4-((2-(dimethylphosphoryl)phenyl)amino)pyrimidin-2-yl)amino)-3-methoxyphenyl)piperidin-4-yl)piperazin-1-yl)hept-1-yn-1-yl)-2-(2,6-dioxopiperidin-3-yl)-3-oxoisoindoline-5-carbonitrile]"
5,1 to 100 nM,"COc1cc(N2CCC(N3CCN(CCCC#Cc4ccc5c(c4)CN(C4CCC(=O)NC4=O)C5=O)CC3)CC2)ccc1Nc1ncc(Cl)c(Nc2ccccc2P(C)(C)=O)n1 (stereo not drawn) [Compound C218, 3-(5-(5-(4-(1-(4-((5-chloro-4-((2-(dimethylphosphoryl)phenyl)amino)pyrimidin-2-yl)amino)-3-methoxyphenyl)piperidin-4-yl)piperazin-1-yl)pent-1-yn-1-yl)-1-oxoisoindolin-2-yl)piperidine-2,6-dione]"
6,1 to 100 nM,"COc1cc(N2CCC(N3CCN(CCCCCCc4cccc5c4CN(C4CCC(=O)NC4=O)C5=O)CC3)CC2)ccc1Nc1ncc(Cl)c(Nc2ccccc2P(C)(C)=O)n1 (stereo not drawn) [Compound C238, 3-(4-(6-(4-(1-(4-((5-chloro-4-((2-(dimethylphosphoryl)phenyl)amino)pyrimidin-2-yl)amino)-3-methoxyphenyl)piperidin-4-yl)piperazin-1-yl)hexyl)-1-oxoisoindolin-2-yl)piperidine-2,6-dione]"
7,1 to 100 nM,"COc1cc(N2CCC(N3CCN(CCCCCCCCc4cccc5c4CN(C4CCC(=O)NC4=O)C5=O)CC3)CC2)ccc1Nc1ncc(Cl)c(Nc2ccccc2P(C)(C)=O)n1 (stereo not drawn) [Compound C240, 3-(4-(8-(4-(1-(4-((5-chloro-4-((2-(dimethylphosphoryl)phenyl)amino)pyrimidin-2-yl)amino)-3-methoxyphenyl)piperidin-4-yl)piperazin-1-yl)octyl)-1-oxoisoindolin-2-yl)piperidine-2,6-dione]"
